The text below walks through data of patent publication US12577245B2, “Sulfonyl benzamide derivatives as Bcl-2 inhibitors” (ASCENTAGE PHARMA (SUZHOU) CO., LTD., priority 2021, dated 2026).

One assay concerns MV-4-11 cells. Description: CCK-8 cell viability assay in MV-4-11 cells. The assay is classed as cell-based. Particulars: Homo sapiens, MV4-11, 72 h, 10% FBS, 3 days. As for the experimental part:
MV-4-11 cells were obtained from University of Michigan. Cells were maintained in the RPMI-1640 medium with 10% FBS and 1% P/S at 37° C. and an atmosphere of 5% CO2.
• The effect of representative Compounds of the Disclosure on cell viability was determined using Cell Counting Kit-8 (CCK-8) assay (Shanghai Life iLab Biotech) according to the manufacturer's instructions. Each tested compound was serially diluted in culture medium, and 100 μL of the compound dilution was added to the corresponding well of the cell plate. 100 μL of MV-4-11 cell suspension (20000 cells/well) in culture medium were seeded into 96-well plates. The cells were incubated at 37° C. in an atmosphere of 5% CO2 for 3 days. At the end of 3 days, 20 μL of CCK-8 solution was added to each well of the plate and incubated for 1-4 hours. The plates were read at 450 nm on the Biotek plate reader. The readings were normalized to the vehicle cells, and the IC50 was calculated using GraphPad Prism 8 software.
For orientation: Formazan colour is commonly taken as a measure of viable cells.

The subject of another assay is RS4; 11Bcl-2-G101V cells. Description: CellTiter-Glo (CTG) cell viability assay in RS4;11-Bcl-2-G101V cells. Particulars: 72 h, 10% FBS, 3 days. The assay is classed as cell-based. The method, then:
RS4; 11Bcl-2-G101V, RS4; 11Bcl-2-D103E, RS4; 11Bcl-2-V156D and RS4; 11Bcl-2-G101V-D103E cells were obtained from Cobioer Biosciences. Cells were maintained in the RPMI-1640 medium with 10% FBS, 1% P/S and puromycin (1 μg/mL) at 37° C. and an atmosphere of 5% CO2.
• The effect of representative Compounds of the Disclosure on cell viability was determined using CellTiter-Glo® (CTG) luminescent cell viability assay (Promega, USA) according to the manufacturer's instructions. 95 μL of cell suspension (10000 cells/well) in culture medium were seeded into 96-well plates and cultured 4 hours. Each tested compound was serially diluted in blank culture medium, and 5 μL of the compound dilution was added to the corresponding well of the cell plate. After the addition of the tested compound, the cells were incubated at 37° C. in an atmosphere of 5% CO2 for 3 days. At the end of 3 days, 30 μL of CTG solution was added to each well of the plate and mix contents for 2 minutes on an orbital shaker. Allow the plate to incubate at room temperature for 15 mins to stabilize signal and record RLU on the Biotek plate reader. The readings were normalized to the vehicle cells, and the IC50 was calculated using GraphPad Prism 8 software.
Background: In ATP-based viability assays light output follows the ATP content of the culture.

As a reminder, the IC50 is the concentration that inhibits the measured activity by half. A lower IC50 goes with greater potency. As to `Cc1ccsc1C1=C(CN2CCN(c3ccc(C(=O)NS(=O)(=O)c4ccc(NCC5CCOCC5)c([N+](=O)[O-])c4)c(Oc4cnc5[nH]ccc5c4)c3)CC2)CCC(C)(C)C1` [Example 4, 2-((1H-pyrrolo[2,3-b]pyridin-5-yl)oxy)-4-(4-((4,4-dimethyl-2-(3-methylthiophen-2-yl)cyclohex-1-en-1-yl)methyl)piperazin-1-yl)-N-((3-nitro-4-(((tetrahydro-2H-pyran-4-yl)methyl)amino)phenyl)sulfonyl)benzamide], the IC50 with MV-4-11 cells is 54 nM; in the assay on RS4; 11Bcl-2-G101V cells it was 3.25 µM.
Take `Cc1csc(C2=C(CN3CCN(c4ccc(C(=O)NS(=O)(=O)c5ccc(NCC6CCOCC6)c([N+](=O)[O-])c5)c(Oc5cnc6[nH]ccc6c5)c4)CC3)CCC(C)(C)C2)c1` [Example 5, 2-((1H-pyrrolo[2,3-b]pyridin-5-yl)oxy)-4-(4-((4,4-dimethyl-2-(4-methylthiophen-2-yl)cyclohex-1-en-1-yl)methyl)piperazin-1-yl)-N-((3-nitro-4-(((tetrahydro-2H-pyran-4-yl)methyl)amino)phenyl)sulfonyl)benzamide]: the values for the IC50 with MV-4-11 cells and in the assay on RS4; 11Bcl-2-G101V cells were 79 nM and 3.82 µM, respectively.
For `CC(C)c1cscc1C1=C(CN2CCN(c3ccc(C(=O)NS(=O)(=O)c4ccc(NCC5CCOCC5)c([N+](=O)[O-])c4)c(Oc4cnc5[nH]ccc5c4)c3)CC2)CCC(C)(C)C1` [Example 7, 2-((1H-pyrrolo[2,3-b]pyridin-5-yl)oxy)-4-(4-((2-(4-isopropylthiophen-3-yl)-4,4-dimethylcyclohex-1-en-1-yl)methyl)piperazin-1-yl)-N-((3-nitro-4-(((tetrahydro-2H-pyran-4-yl)methyl)amino)phenyl)sulfonyl)benzamide], the IC50 in the assay on MV-4-11 cells was 209 nM; with RS4; 11Bcl-2-G101V cells, 4.27 µM.
On to `CC(C)c1cscc1C1=C(CN2CCN(c3ccc(C(=O)NS(=O)(=O)c4ccc(NC[C@H]5COCCO5)c([N+](=O)[O-])c4)c(Oc4cnc5[nH]ccc5c4)c3)CC2)CCC(C)(C)C1` [Example 9, (S)—N-((4-(((1,4-dioxan-2-yl)methyl)amino)-3-nitrophenyl)sulfonyl)-2-((1H-pyrrolo[2,3-b]pyridin-5-yl)oxy)-4-(4-((2-(4-isopropylthiophen-3-yl)-4,4-dimethylcyclohex-1-en-1-yl)methyl)piperazin-1-yl)benzamide], for which the IC50 is 167 nM in the assay on MV-4-11 cells and 5.42 µM with RS4; 11Bcl-2-G101V cells.
On the same counts, the results for `CC(C)c1ccc(C2=C(CN3CCN(c4ccc(C(=O)NS(=O)(=O)c5ccc(NCC6CCOCC6)c([N+](=O)[O-])c5)c(Oc5cnc6[nH]ccc6c5)c4)CC3)CCC(C)(C)C2)s1` [Example 12, 2-((1H-pyrrolo[2,3-b]pyridin-5-yl)oxy)-4-(4-((2-(5-isopropylthiophen-2-yl)-4,4-dimethylcyclohex-1-en-1-yl)methyl)piperazin-1-yl)-N-((3-nitro-4-(((tetrahydro-2H-pyran-4-yl)methyl)amino)phenyl)sulfonyl)benzamide] are 164 nM and 4.03 µM.
In the same order, the values of `CC(C)c1sccc1C1=C(CN2CCN(c3ccc(C(=O)NS(=O)(=O)c4ccc(NC[C@H]5COCCO5)c([N+](=O)[O-])c4)c(Oc4cnc5[nH]ccc5c4)c3)CC2)CCC(C)(C)C1` [Example 13, (S)—N-((4-(((1,4-dioxan-2-yl)methyl)amino)-3-nitrophenyl)sulfonyl)-2-((1H-pyrrolo[2,3-b]pyridin-5-yl)oxy)-4-(4-((2-(2-isopropylthiophen-3-yl)-4,4-dimethylcyclohex-1-en-1-yl)methyl)piperazin-1-yl)benzamide] are 25 nM and 1.79 µM.
On to `CC(C)c1ccc(C2=C(CN3CCN(c4ccc(C(=O)NS(=O)(=O)c5ccc(NC[C@H]6COCCO6)c([N+](=O)[O-])c5)c(Oc5cnc6[nH]ccc6c5)c4)CC3)CCC(C)(C)C2)s1` [Example 14, (S)—N-((4-(((1,4-dioxan-2-yl)methyl)amino)-3-nitrophenyl)sulfonyl)-2-((1H-pyrrolo[2,3-b]pyridin-5-yl)oxy)-4-(4-((2-(5-isopropylthiophen-2-yl)-4,4-dimethylcyclohex-1-en-1-yl)methyl)piperazin-1-yl)benzamide], for which the half-inhibitory concentration (IC50) stood at 98 nM in the assay with MV-4-11 cells and 2.66 µM in the assay on RS4; 11Bcl-2-G101V cells.
On the same counts, the results for `CC1(C)CCC(CN2CCN(c3ccc(C(=O)NS(=O)(=O)c4ccc(NC[C@H]5COCCO5)c([N+](=O)[O-])c4)c(Oc4cnc5[nH]ccc5c4)c3)CC2)=C(c2cc(Nc3ccc(F)cc3F)cs2)C1` [Example 20, (S)—N-((4-(((1,4-dioxan-2-yl)methyl)amino)-3-nitrophenyl)sulfonyl)-2-((1H-pyrrolo[2,3-b]pyridin-5-yl)oxy)-4-(4-((2-(4-((2,4-difluorophenyl)amino)thiophen-2-yl)-4,4-dimethylcyclohex-1-en-1-yl)methyl)piperazin-1-yl)benzamide] are over 1000 nM and over 10 µM.
In the same order, the values of `CC1(C)CCC(CN2CCN(c3ccc(C(=O)NS(=O)(=O)c4ccc(NC[C@H]5COCCO5)c([N+](=O)[O-])c4)c(Oc4cnc5[nH]ccc5c4)c3)CC2)=C(c2cc(CN3CC4(C3)CN(S(C)(=O)=O)C4)cs2)C1` [Example 27] are 126 nM and 1.04 µM.
Take `CC1(C)CCC(CN2CCN(c3ccc(C(=O)NS(=O)(=O)c4ccc(NC[C@H]5CC[C@](C)(O)CC5)c([N+](=O)[O-])c4)c(Oc4cnc5[nH]ccc5c4)c3)CC2)=C(c2cc(-c3c(F)cc(F)cc3F)cs2)C1` [Example 47, 2-((1H-pyrrolo[2,3-b]pyridin-5-yl)oxy)-4-(4-((4,4-dimethyl-2-(4-(2,4,6-trifluorophenyl)thiophen-2-yl)cyclohex-1-en-1-yl)methyl)piperazin-1-yl)-N-((4-((((1r,4r)-4-hydroxy-4-methylcyclohexyl)methyl)amino)-3-nitrophenyl)sulfonyl)benzamide]: the IC50 in the assay with MV-4-11 cells was found to be 5 nM; in the assay on RS4; 11Bcl-2-G101V cells, 0.19 µM.
`CC1(C)CCC(CN2CCN(c3ccc(C(=O)NS(=O)(=O)c4ccc(NC[C@H]5COCCO5)c([N+](=O)[O-])c4)c(Oc4cnc5[nH]ccc5c4)c3)CC2)=C(c2cc(-c3ccc(F)cn3)cs2)C1` [Example 52, (S)—N-((4-(((1,4-dioxan-2-yl)methyl)amino)-3-nitrophenyl)sulfonyl)-2-((1H-pyrrolo[2,3-b]pyridin-5-yl)oxy)-4-(4-((2-(4-(5-fluoropyridin-2-yl)thiophen-2-yl)-4,4-dimethylcyclohex-1-en-1-yl)methyl)piperazin-1-yl)benzamide]: the IC50 in the assay with MV-4-11 cells amounted to 296 nM; in the assay with RS4; 11Bcl-2-G101V cells, 4.99 µM.
For the compound `CC1(C)CCC(CN2CCN(c3ccc(C(=O)NS(=O)(=O)c4ccc(NC[C@H]5COCCO5)c([N+](=O)[O-])c4)c(Oc4cnc5[nH]ccc5c4)c3)CC2)=C(c2cc(-c3c(F)cc(F)c4cc[nH]c34)cs2)C1` [Example 57, (S)—N-((4-(((1,4-dioxan-2-yl)methyl)amino)-3-nitrophenyl)sulfonyl)-2-((1H-pyrrolo[2,3-b]pyridin-5-yl)oxy)-4-(4-((2-(4-(4,6-difluoro-1H-indol-7-yl)thiophen-2-yl)-4,4-dimethylcyclohex-1-en-1-yl)methyl)piperazin-1-yl)benzamide], the concentration for half-maximal inhibition (IC50) in the assay with MV-4-11 cells is 1210 nM; in the assay with RS4; 11Bcl-2-G101V cells it was 5.81 µM.
Regarding `CC1(C)CCC(CN2CCN(c3ccc(C(=O)NS(=O)(=O)c4ccc(NC[C@H]5CC[C@](C)(O)CC5)c([N+](=O)[O-])c4)c(Oc4cnc5[nH]ccc5c4)c3)CC2)=C(c2cc(C#Cc3ccc(F)cc3)cs2)C1` [Example 61, 2-((1H-pyrrolo[2,3-b]pyridin-5-yl)oxy)-4-(4-((2-(4-((4-fluorophenyl)ethynyl)thiophen-2-yl)-4,4-dimethylcyclohex-1-en-1-yl)methyl)piperazin-1-yl)-N-((4-((((1r,4r)-4-hydroxy-4-methylcyclohexyl)methyl)amino)-3-nitrophenyl)sulfonyl)benzamide], the IC50 turned out to be 107 nM in the assay with MV-4-11 cells and 3.18 µM in the assay on RS4; 11Bcl-2-G101V cells.
As for `Cc1cc(C(C)(C)O)cc(C)c1-c1csc(C2=C(CN3CCN(c4ccc(C(=O)NS(=O)(=O)c5ccc(NC[C@H]6CC[C@](C)(O)CC6)c([N+](=O)[O-])c5)c(Oc5cnc6[nH]ccc6c5)c4)CC3)CCC(C)(C)C2)c1` [Example 65, 2-((1H-pyrrolo[2,3-b]pyridin-5-yl)oxy)-N-((4-((((1r,4r)-4-hydroxy-4-methylcyclohexyl)methyl)amino)-3-nitrophenyl)sulfonyl)-4-(4-((2-(4-(4-(2-hydroxypropan-2-yl)-2,6-dimethylphenyl)thiophen-2-yl)-4,4-dimethylcyclohex-1-en-1-yl)methyl)piperazin-1-yl)benzamide], the IC50 in the assay with MV-4-11 cells is 192 nM; in the assay with RS4; 11Bcl-2-G101V cells, 0.598 µM.
